Values quoted from earlier work, collected in patent US20220143126A1, “SYNERGISTIC COMBINATION OF PHYTOACTIVES” (priority 2019, published 2022).

Settings: rats, concomitant administration of curcumin with piperine

increase in bioavailability: 150%
SMILES: COc1cc(/C=C/C(=O)CC(=O)/C=C/c2ccc(O)c(OC)c2)ccc1O [curcumin]
